ChEMBL document CHEMBL4334471, “Discovery of 1,8-disubstituted-[1,2,3]triazolo[4,5-c]quinoline derivatives as a new class of Hippo signaling pathway inhibitors” (Bioorg Med Chem Lett, 2019)

Key:
[1] = target: Cyclin-dependent kinase-like 3 (Homo sapiens) (UniProt Q8IVW4); assay: Inhibition of recombinant full length human CDKL3 assessed as residual activity at 10 uM using RRRFRPASPLRGPPK as substrate incubated for 120 mins in presence of [gamma-33ATP] by scintillation counting based radiometry assay relative to control
Mus musculus [2] = species on record: Mus musculus; assay: Inhibition of recombinant full-length mouse PI3K p110/p85 H1047R mutant assessed as residual activity at 10 uM using phosphatidylinositol-4, 5-bisphosphate as substrate incubated for 40 mins in presence of [gamma33P]ATP by scintillation counting based radiometry assay relative to control
[3] = test system: TGF-beta receptor type-1 (Homo sapiens), P36897 [T204D]; assay: Inhibition of recombinant human TGFBR1 T204D mutant (200 to end residues) assessed as residual activity at 10 uM using casein as substrate incubated for 40 mins in presence of [gamma33P]ATP by scintillation counting based radiometry assay relative to control
[4] = test system: Glycogen synthase kinase-3 alpha (Homo sapiens), P49840 [UNDEFINED MUTATION]; assay: Inhibition of human GSK-3alpha S449A mutant (2 to end residues) assessed as residual activity at 10 uM using phospho GS2 peptide as substrate after 40 mins by [gamma-33ATP] radiometric assay
Chain of Glycogen synthase kinase-3 alpha (Homo sapiens), P49840 [UNDEFINED MUTATION] (P49840 whole entry, looked up, stated change not applied): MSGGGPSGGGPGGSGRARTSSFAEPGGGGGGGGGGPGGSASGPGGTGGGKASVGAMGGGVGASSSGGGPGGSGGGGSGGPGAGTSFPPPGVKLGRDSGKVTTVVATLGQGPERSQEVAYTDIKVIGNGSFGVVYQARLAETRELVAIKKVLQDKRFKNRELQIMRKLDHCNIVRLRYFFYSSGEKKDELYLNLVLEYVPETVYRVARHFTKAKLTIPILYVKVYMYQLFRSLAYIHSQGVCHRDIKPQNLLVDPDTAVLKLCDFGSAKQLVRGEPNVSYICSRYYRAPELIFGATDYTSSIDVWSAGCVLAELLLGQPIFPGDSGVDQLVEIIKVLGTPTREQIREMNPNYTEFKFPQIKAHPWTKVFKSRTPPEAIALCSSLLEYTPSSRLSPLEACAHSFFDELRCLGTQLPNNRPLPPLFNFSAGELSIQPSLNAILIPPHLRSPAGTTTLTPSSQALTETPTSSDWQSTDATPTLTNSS

[5] = target: Serine/threonine-protein kinase N2 (Homo sapiens) (UniProt Q16513); assay: Inhibition of recombinant human PRK2 (501 to end residues) assessed as residual activity at 10 uM using AKRRRLSSLRA as substrate incubated for 40 mins in presence of [gamma33P]ATP by scintillation counting based radiometry assay relative to control
[6] = test system: Serine/threonine-protein kinase TAO3 (Homo sapiens), Q9H2K8 [UNDEFINED MUTATION]; assay: Inhibition of recombinant human TAO3 N47S mutant (1 to 411 residues) assessed as residual activity at 10 uM using myelin basic protein as substrate incubated for 40 mins in presence of [gamma33P]ATP by scintillation counting based radiometry assay relative to control
[7] = test system: Fibroblast growth factor receptor 1 (Homo sapiens), P11362 [V561M]; assay: Inhibition of recombinant human FGFR1 V561M mutant (456 to 765 residues) assessed as residual activity at 10 uM using KKKSPGEYVNIEF as substrate at 40 mins in presence of [gamma-33ATP] by scintillation counting based radiometry assay relative to control
Chain of Fibroblast growth factor receptor 1 (Homo sapiens), P11362 [V561M] (P11362 whole entry V561M, the tested form may be a part): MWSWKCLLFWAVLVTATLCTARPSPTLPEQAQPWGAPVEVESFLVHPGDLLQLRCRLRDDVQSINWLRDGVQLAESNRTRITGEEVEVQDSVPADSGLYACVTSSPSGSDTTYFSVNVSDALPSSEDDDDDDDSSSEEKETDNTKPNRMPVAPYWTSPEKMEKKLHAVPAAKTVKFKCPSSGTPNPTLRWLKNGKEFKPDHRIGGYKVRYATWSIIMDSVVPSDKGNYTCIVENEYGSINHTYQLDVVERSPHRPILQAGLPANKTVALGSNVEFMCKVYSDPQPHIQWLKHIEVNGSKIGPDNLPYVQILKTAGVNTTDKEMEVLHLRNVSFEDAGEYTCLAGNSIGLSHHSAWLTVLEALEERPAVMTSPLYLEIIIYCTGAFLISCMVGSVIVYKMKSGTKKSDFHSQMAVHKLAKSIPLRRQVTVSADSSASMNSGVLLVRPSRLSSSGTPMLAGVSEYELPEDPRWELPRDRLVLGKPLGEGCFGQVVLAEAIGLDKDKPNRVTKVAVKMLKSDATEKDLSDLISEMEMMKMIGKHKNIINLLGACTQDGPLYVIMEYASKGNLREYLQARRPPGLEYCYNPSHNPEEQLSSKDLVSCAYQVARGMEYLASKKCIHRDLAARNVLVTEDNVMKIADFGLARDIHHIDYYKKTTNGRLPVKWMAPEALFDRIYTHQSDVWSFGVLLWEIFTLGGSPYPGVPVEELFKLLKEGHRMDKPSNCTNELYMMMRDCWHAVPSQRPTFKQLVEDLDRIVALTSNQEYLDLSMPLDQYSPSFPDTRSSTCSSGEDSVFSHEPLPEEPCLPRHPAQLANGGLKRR

[8] = target: Cyclin-Y/Cyclin-dependent kinase 16 (Homo sapiens) (UniProt Q00536+Q8ND76); assay: Inhibition of recombinant full length human CDK16/cyclinY assessed as residual activity at 10 uM using PKSPKARKKL as substrate incubated for 120 mins in presence of [gamma-33ATP] by scintillation counting based radiometry assay relative to control; type: protein-complex assay
Homo sapiens [9] = species on record: Homo sapiens; assay: Inhibition of activated recombinant human TEC F514V mutant activated (174 to end residues) assessed as residual activity at 10 uM using EFPIYDFLPAKKK as substrate incubated for 40 mins in presence of [gamma33P]ATP by scintillation counting based radiometry assay relative to control
[10] = target: CDC7/Cyclin B1 (Homo sapiens) (UniProt P14635+O00311); assay: Inhibition of recombinant full length human CD7/CyclinB1 assessed as residual activity at 10 uM using Histone H1 as substrate incubated for 40 mins in presence of [gamma-33ATP] by scintillation counting based radiometry assay relative to control; type: protein-complex assay
Chain of CDC7/Cyclin B1 (Homo sapiens) (O00311 whole entry, looked up, the tested form may be a part): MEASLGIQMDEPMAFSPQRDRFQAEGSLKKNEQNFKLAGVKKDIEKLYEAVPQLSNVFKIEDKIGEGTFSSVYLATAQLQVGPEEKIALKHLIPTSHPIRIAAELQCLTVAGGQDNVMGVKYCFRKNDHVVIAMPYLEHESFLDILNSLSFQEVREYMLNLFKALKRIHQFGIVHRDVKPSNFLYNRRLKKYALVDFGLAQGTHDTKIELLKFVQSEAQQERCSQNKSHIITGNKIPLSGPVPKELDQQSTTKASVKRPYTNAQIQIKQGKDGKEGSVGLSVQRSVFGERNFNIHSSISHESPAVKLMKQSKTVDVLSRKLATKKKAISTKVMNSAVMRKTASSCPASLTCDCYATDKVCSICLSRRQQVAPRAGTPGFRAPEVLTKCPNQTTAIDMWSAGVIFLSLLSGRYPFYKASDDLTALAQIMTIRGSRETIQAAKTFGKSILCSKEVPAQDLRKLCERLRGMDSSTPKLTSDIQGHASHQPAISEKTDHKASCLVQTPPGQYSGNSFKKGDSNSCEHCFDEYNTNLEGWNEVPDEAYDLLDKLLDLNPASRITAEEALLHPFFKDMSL
Chain of CDC7/Cyclin B1 (Homo sapiens) (P14635 whole entry, looked up, the tested form may be a part): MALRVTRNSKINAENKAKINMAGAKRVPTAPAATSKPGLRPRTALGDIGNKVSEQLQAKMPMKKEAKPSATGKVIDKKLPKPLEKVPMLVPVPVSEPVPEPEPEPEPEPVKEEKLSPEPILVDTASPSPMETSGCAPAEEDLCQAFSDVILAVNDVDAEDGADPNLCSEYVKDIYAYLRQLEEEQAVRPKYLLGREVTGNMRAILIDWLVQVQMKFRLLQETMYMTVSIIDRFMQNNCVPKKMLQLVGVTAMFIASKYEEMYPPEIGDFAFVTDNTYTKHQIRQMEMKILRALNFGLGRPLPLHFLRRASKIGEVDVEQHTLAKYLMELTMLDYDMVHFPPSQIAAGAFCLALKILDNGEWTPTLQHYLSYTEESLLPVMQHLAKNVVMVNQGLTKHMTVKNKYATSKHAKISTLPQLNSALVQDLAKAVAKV

[11] = target: Death-associated protein kinase 1 (Homo sapiens) (UniProt P53355); assay: Inhibition of recombinant human DAPK1 (1 to 296 residues) assessed as residual activity at 10 uM KKLNRTLSFAEPG as substrate incubated 40 mins in presence of [gamma-33ATP] by scintillation counting based radiometry assay relative to control
Mus musculus [12] = species on record: Mus musculus; assay: Inhibition of mouse MAPK2 assessed as residual activity at 10 uM relative to control
Homo sapiens [13] = species on record: Homo sapiens; assay: Inhibition of recombinant human EphB2 A848S/K918E mutant (560 to end residues) assessed as residual activity at 10 uM using KTFCGTPEYLAPEVRREPRILSEEEQEMFRDFDYIADWC as substrate at 40 mins in presence of [gamma-33ATP] by scintillation counting based radiometry assay relative to control
[14] = target: Serine/threonine-protein kinase/endoribonuclease IRE1 (Homo sapiens) (UniProt O75460); assay: Inhibition of human IRE1 (465 to end residues) assessed as residual activity at 10 uM using myelin basic protein as substrate after 40 mins by [gamma-33ATP] radiometric assay relative to control
Chain of Serine/threonine-protein kinase/endoribonuclease IRE1 (Homo sapiens) (O75460 19-977 limits assumed): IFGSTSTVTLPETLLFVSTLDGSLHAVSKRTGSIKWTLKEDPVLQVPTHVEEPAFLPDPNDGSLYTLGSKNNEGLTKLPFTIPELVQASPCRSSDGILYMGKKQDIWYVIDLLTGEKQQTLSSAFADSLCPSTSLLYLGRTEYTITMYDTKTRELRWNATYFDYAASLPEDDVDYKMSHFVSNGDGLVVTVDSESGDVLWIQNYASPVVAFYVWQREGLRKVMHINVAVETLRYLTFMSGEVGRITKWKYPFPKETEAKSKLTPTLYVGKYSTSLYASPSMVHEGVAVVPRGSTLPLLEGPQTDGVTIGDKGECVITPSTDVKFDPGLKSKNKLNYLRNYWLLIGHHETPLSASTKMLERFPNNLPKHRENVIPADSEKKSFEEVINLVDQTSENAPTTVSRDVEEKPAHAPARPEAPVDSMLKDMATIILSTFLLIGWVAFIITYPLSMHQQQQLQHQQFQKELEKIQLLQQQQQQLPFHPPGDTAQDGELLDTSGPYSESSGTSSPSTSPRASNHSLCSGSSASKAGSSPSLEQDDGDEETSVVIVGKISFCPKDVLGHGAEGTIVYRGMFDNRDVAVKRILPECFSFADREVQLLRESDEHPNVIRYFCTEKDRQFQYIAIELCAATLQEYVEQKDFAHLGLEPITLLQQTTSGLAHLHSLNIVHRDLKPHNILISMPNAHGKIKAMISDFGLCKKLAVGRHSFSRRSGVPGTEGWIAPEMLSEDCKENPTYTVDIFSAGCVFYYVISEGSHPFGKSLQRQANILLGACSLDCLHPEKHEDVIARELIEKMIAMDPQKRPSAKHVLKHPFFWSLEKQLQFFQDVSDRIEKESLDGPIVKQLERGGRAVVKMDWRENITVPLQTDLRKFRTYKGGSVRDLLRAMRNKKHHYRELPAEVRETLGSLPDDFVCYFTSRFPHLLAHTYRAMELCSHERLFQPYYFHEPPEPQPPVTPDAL

Homo sapiens [15] = species on record: Homo sapiens; assay: Inhibition of recombinant full-length human ATR/ATRIP M211T mutant assessed as residual activity at 10 uM using GST-cMyc-p53 as substrate measured after 40 mins by fluorescence assay relative to control
[16] = target: Tyrosine-protein kinase CSK (Homo sapiens) (UniProt P41240); assay: Inhibition of recombinant human CSK assessed as residual activity at 10 uM poly(Glu, Tyr) 4:1 as substrate incubated 40 mins in presence of [gamma-33ATP] by scintillation counting based radiometry assay relative to control
Chain of Tyrosine-protein kinase CSK (Homo sapiens) (P41240 2-450 limits assumed): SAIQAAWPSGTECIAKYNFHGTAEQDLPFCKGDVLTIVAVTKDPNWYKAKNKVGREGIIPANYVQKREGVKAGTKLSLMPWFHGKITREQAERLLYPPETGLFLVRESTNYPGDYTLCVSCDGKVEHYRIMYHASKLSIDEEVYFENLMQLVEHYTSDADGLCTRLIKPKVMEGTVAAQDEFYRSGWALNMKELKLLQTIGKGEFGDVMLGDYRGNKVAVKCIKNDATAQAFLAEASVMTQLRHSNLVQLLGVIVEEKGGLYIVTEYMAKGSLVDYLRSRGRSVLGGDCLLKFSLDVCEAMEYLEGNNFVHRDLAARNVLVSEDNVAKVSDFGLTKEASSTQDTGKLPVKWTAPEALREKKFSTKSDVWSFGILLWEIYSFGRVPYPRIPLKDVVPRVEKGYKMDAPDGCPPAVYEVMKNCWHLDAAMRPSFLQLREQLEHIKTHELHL

[17] = target: Serine/threonine-protein kinase 26 (Homo sapiens) (UniProt Q9P289); assay: Inhibition of recombinant human MST4 (4 to 304 residues) assessed as residual activity at 10 uM using RLGRDKYKTLRQI as substrate measured after 40 mins in presence of [gamma33P]ATP by scintillation counting based radiometry assay relative to control
[18] = target: Ribosomal protein S6 kinase alpha-3 (Homo sapiens) (UniProt P51812); assay: Inhibition of recombinant human Rsk2 (2 to end residues) assessed as residual activity at 10 uM using KKKNRTLSVA as substrate incubated for 40 mins in presence of [gamma33P]ATP by scintillation counting based radiometry assay relative to control
Chain of Ribosomal protein S6 kinase alpha-3 (Homo sapiens) (P51812 whole entry): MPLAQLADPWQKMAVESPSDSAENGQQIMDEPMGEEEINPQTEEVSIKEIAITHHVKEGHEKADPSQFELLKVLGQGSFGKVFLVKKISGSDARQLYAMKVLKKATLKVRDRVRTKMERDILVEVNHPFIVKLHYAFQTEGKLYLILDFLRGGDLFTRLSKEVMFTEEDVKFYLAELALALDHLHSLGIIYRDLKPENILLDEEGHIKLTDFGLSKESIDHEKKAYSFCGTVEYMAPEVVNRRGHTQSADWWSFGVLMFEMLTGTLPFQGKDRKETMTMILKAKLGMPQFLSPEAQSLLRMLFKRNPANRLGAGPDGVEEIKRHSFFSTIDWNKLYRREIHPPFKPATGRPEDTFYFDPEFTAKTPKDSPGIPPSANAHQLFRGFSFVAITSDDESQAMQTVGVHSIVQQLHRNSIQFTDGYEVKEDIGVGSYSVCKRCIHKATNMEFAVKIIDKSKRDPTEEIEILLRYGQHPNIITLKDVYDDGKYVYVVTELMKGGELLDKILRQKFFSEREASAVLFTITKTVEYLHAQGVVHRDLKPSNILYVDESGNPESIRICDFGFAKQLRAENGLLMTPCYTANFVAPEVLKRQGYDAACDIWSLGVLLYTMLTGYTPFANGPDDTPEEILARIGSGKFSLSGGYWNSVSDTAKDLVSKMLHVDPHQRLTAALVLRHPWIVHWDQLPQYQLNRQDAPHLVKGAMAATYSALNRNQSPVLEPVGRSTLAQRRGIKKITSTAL

[19] = target: Serine/threonine-protein kinase B-raf (Homo sapiens) (UniProt P15056); assay: Inhibition of recombinant full length human B-Raf (416 to end residues) assessed as residual activity at 10 uM using myelin basic protein substrate incubated for 40 mins in presence of [gamma-33ATP] by scintillation counting based radiometry assay relative to control
[20] = target: Tribbles homolog 2 (Homo sapiens) (UniProt Q92519); assay: Inhibition of recombinant full-length human TRB2 assessed as residual activity at 10 uM using RRRFRPASPLRGPPK as substrate incubated for 120 mins in presence of [gamma33P]ATP by scintillation counting based radiometry assay relative to control
Chain of Tribbles homolog 2 (Homo sapiens) (Q92519 whole entry): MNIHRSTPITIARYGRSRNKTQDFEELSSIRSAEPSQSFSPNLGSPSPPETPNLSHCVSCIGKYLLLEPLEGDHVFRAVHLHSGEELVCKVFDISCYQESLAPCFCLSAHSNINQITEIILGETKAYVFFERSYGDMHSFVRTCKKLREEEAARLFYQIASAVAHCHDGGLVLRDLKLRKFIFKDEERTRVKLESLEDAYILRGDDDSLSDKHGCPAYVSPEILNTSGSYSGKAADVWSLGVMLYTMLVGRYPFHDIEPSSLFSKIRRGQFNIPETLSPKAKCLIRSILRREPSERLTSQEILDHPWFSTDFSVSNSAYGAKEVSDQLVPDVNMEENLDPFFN

Homo sapiens [21] = species on record: Homo sapiens; assay: Inhibition of recombinant human MARK1 T20S mutant (2 to end residues) assessed as residual activity at 10 uM using KKKVSRSGLYRSPSMPENLNRPR as substrate incubated for 40 mins in presence of [gamma-33ATP by scintillation counting based radiometry assay relative to control
[22] = target: Calcium/calmodulin-dependent protein kinase type II subunit alpha (Homo sapiens) (UniProt Q9UQM7); assay: Inhibition of recombinant full length human CaMK2alpha assessed as residual activity at 10 uM using KKLNRTLSFAEPG as substrate incubated for 40 mins in presence of [gamma-33ATP] by scintillation counting based radiometry assay relative to control

Compound: C[C@@H](c1ccccc1)n1nnc2cnc3ccc(-c4cnc5[nH]ccc5c4)cc3c21
- Activity [1]: 104%
- Activity (Mus musculus [2]): 5%
- Activity [3]: 97%
- Activity [4]: 79%
- Activity [5]: 89%
- Activity [6]: 68%
- Activity [7]: 22%
- Activity [8]: 106%
- Activity (Homo sapiens [9]): 35%
- Activity [10]: 63%
- Activity [11]: 84%
- Activity (Mus musculus [12]): 100%
- Activity (Homo sapiens [13]): 83%
- Activity [14]: 86%
- Activity (Homo sapiens [15]): 40%
- Activity [16]: 74%
- Activity [17]: 69%
- Activity [18]: 53%
- Activity [19]: 73%
- Activity [20]: 86%
- Activity (Homo sapiens [21]): 76%
- Activity [22]: 50%
